Converted amounts (≈) assume the structure as drawn.

For orientation: MIC means the least concentration at which growth counts as inhibited. A low value points to inhibition by little substance. The term Cmax denotes the highest concentration seen after dosing. One may read the AUC(0-t) as exposure summed from dosing to a finite time, without extrapolation to infinity. One may read the AUC(0-inf) as the area under the concentration-time curve extrapolated to infinity. By clearance is commonly meant the rate of elimination divided by the concentration. As a reminder, the MRT inf is the average time that molecules of a dose stay in the body.

For data set [1], the system named is Streptococcus pyogenes SSI-9. The data set can be described thus: MIC by broth microdilution assay. It counts as cell-based. As to conditions: SSI9, MHB with 2.5% lysed horse blood, 24 h, median of three experiments. On the procedure: Antimicrobial activity was assessed by determining the MIC by broth dilution assay according to our previous reports[21],[35],[36] as per the Clinical and Laboratory Standards Institute[37]. Briefly, serial dilutions of compound 5, compound 7, and positive controls were prepared in cation-adjusted Mueller-Hinton Broth (MHB, Difco, Franklin Lakes, NJ, USA), 100 µl of which was dispensed into each well of a round-bottomed 96-well plate. The final concentrations in the well ranged from 128 µg/ml to 0.0625 µg/ml. Bacteria were grown at 37 °C overnight on either Luria Bertani (tryptone 10 g/l, yeast extract 5 g/l, NaCl 10 g/l) or Tryptic Soy Broth (TSB, Difco) agar plates or sheep blood agar plates (Eiken Chemical Co. Ltd., Tokyo, Japan). Bacterial inoculum was prepared by direct suspension of the colonies in 0.9% saline, and adjusted to obtain a turbidity equivalent to a 0.5 McFarland standard using a spectrophotometer UV-1280 (Shimadzu Corp., Kyoto, Japan). The suspension was then diluted 1:20 in cation-adjusted MHB (Difco), and 10 µl of it was inoculated into each well of previously prepared 96-well plates containing compounds to […] […] Vancomycin (Wako Pure Chemicals) or norfloxacin (Sigma Aldrich, St Louis, MO, USA) were used as positive controls. Each plate contained a growth control well and a vehicle control well. The MIC was determined as the minimum concentration that inhibited the growth of the bacteria.
(Broth dilution looks for growth in wells or tubes with falling amounts of substance.)

The nature of data set [2]: Pharmacokinetics in silkworm hemolymph after intra-hemolymph injection. It counts as in vivo, Silkworms (Bombyx mori). As to conditions: for Cmax / AUC(0-t) / k el / AUC(0-inf) / C0 / clearance / MRT inf / Vd / half-life: Hu•Yo × Tsukuba•Ne, 50 ug, injected dose 50 μg intra-hemolymph; for AUC(0-t): 0 to last measured value (5 h); for k el: PKSolver non-compartment analysis, read-out: Lambda_z (converted); for AUC(0-inf): extrapolated to infinity; for C0: read-out: C0 (initial concentration, extrapolated time-zero value); for clearance: read-out: Cl (total clearance); for MRT inf: read-out: MRT 0-inf (mean residence time) (converted); for Vd: read-out: Vss (volume of distribution at steady state); for half-life: read-out: t1/2 (half-life at terminal phase). On the procedure:
To gain an insight into the reason for the difference in the therapeutic activities of compounds 5 and 7, we evaluated the pharmacokinetic properties of both compounds in vivo in silkworms. We injected silkworms into the hemolymph with compound 5 or compound 7 (50 µg each) and collected the hemolymph from each injected silkworm at different time-points for high performance liquid chromatography (HPLC) analysis. The concentration-time profile was plotted and the pharmacokinetic parameters were analyzed using PKSolver[32] (Fig. 3a,b). […] The volume of distribution at steady state (Vss) value of compound 7 was larger than that of compound 5, further indicating the higher distribution capacity of compound 7 compared with compound 5. The concentrations of compounds 5 and 7 in the hemolymph decreased with time, with compound 7 having faster rate of elimination than compound 5. At 5 h, the concentration of compound 5 in the hemolymph was approximately 10-fold higher than that of 7. […] Both the area under the curves (AUC) at 5 h and that extrapolated to infinity were higher for compound 5 than for compound 7 in the silkworm.
Silkworms larvae hatched from eggs (Hu•Yo × Tsukuba•Ne, Ehime Sanshu, Ehime, Japan) were fed Silkmate 2S (Nosan Corporation, Yokohama, Japan) and grown at 27 °C until the fourth molt stage. They were, then, fed an antibiotic-free artificial food, Silkmate (Katakura Industries Co., Ltd., Tokyo, Japan), on the first day of fifth-instar larval stage. The next day, larvae (~2 g) were injected into the hemolymph with 50 µg of compounds 5 and 7 using a 1 ml syringe with a 27 G needle (Terumo Corporation, Tokyo, Japan). Silkworms were incubated after injection at 27 °C without feeding. The hemolymph was harvested from the limbs of individual silkworms at the indicated time, and the silkworms were killed after the harvest. The harvested hemolymph was mixed with an equal volume of acetonitrile followed by centrifugation at 15, 000 rpm for 10 min at 4 °C. The supernatant was collected, evaporated, and dissolved into 50% acetonitrile. The samples thus prepared were analyzed by high performance liquid chromatography (HPLC) equipped with a Waters 2998 Photodiode Array Detector (Waters Corporation, Milford, MA, USA) and a Waters 2707 Autosampler (Waters) using a Senshu-Pak Pegasil ODS-SP-100 column (4.6 Ø × 250 mm; Senshu Scientific, Tokyo, Japan) with gradient elution of 50–100% acetonitrile for 30 min at a flow rate of 1 ml/min. Standard curves for each compound were drawn by measuring the peak area on HPLC charts, and the amounts of each compound in the sample were determined. Mean concentrations from triplicate experiments were determined for each time-point and the pharmacokinetic parameters were determined using the PKSolver 2.0 ‘add-in’ for Excel 2007 on a computer running Windows 7[32]. Non-compartment analysis was performed with area under the curve calculated using the linear trapezoidal method. The terminal elimination slope, λz was calculated based on default parameters. Statistical analysis was performed using Prism 5 for Mac OS X, version 5.0 f (GraphPad Software, La Jolla, CA).

Data set [3] is described as follows: Metabolism in pooled human liver S9 fractions. It counts as in vitro ADME. As to conditions: 40 µg/ml compound; pooled human liver S9, NADPH, 37 °C; 10, 20, 30 min; HPLC. On the procedure: Metabolism of the compounds was determined according to Yang et al.[38] with slight modifications. Briefly, reaction mixture containing 5 mM MgCl2, 2 mM NADPH, 20 µg/ml pooled human liver S9 fractions (Sekisui Xenotech, KS, USA) in 0.05 M Tris-HCl buffer (pH 7.4) was pre-incubated at 37 °C for 5 min. The reaction was initiated by the addition of 40 µg/ml compound 5 or compound 7 and incubation was continued. Aliquots (100 µl) were collected at 10, 20, and 30 min, and an equal volume of acetonitrile was added. The resulting mixture was analyzed by HPLC equipped with a Waters 2998 Photodiode Array Detector and a Waters 2707 Autosampler using a Senshu-Pak Pegasil ODS-SP-100 column (4.6 Ø × 250 mm) with gradient elution of 50–100% acetonitrile for 30 min at the flow rate of 1 ml/min. Statistical analysis was performed using Prism 5 for Mac OS X, version 5.0 f (GraphPad Software).

In data set [1], `O=C(OCc1cc(Cl)cc(Cl)c1)c1ccc([N+](=O)[O-])s1` [compound 5] yielded an MIC of 8 µg/mL (≈ 24.1 µM). For the same molecule, in data set [2], the Cmax was 23000 ng/mL, the AUC(0-t) is 3000 ng·h/mL, the k el was 8.33e-05 s⁻¹ and the AUC(0-inf) is 3480 ng·h/mL. Moreover, in data set [2], the C0 is 24000 ng/mL, the clearance stood at 0.23 mL/min, the MRT inf is 2.08 h and the Vd was determined as 0.03 L. Further, the half-life in data set [2] came out at 2.33 h. For the same molecule, the “concentration in the hemolymph relative to compound 7” value in data set [2] (at 5 h after injection of 50 µg) is on record as “approximately 10 fold”. In addition, in data set [3], the “metabolism by human liver S9 fractions” value is “slowly metabolized compared with compound 7”.
In data set [1], `O=C(OCc1ccccc1)c1ccc([N+](=O)[O-])s1` [compound 7] displayed an MIC of 16 µg/mL (≈ 60.8 µM). Also, in data set [2], the Cmax was determined as 7000 ng/mL, the area under the curve AUC(0-t) is 733 ng·h/mL, the k el was 0.000217 s⁻¹ and the AUC(0-inf) is 733 ng·h/mL. For the same molecule, in data set [2], the C0 is 7000 ng/mL, the clearance was determined as 1.1 mL/min, the mean residence time (MRT inf) was 0.733 h and the Vd was 0.044 L. In data set [2], the half-life was 0.883 h.

The record behind these values is paper PMC5785531, “Pharmacokinetic parameters explain the therapeutic activity of antimicrobial agents in a silkworm infection model” (Scientific Reports, 2018).
